Experimental data published in US20250179061A1 (SIRONAX LTD., priority 2022, published 2025).
Like-named read-outs stand apart in the source and are kept apart here.

Test system: HT-29 cells
Test: HT-29 necroptosis cell viability assay (TNF-α/SMAC mimetic/zVAD-FMK, CellTiter-Glo)
Format: cell-based
Settings: Homo sapiens
Outline: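 HT-29 cells (~5,000/well, overnight) in FBS-free McCoy's 5A with TNF-α 10 ng/ml, SMAC mimetic 6 μM and zVAD-FMK 10 μM plus 10-point 1:3 compound titration, 20 h at 37°C. ATP measured by CellTiter-Glo luminescence; IC50 as geometric mean of duplicates.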

[1] = HT-29, HT-29 cells, necroptosis induced by TNF-α/SMAC mimetic/zVAD-FMK, CellTiter-Glo, read-out: Activity (IC50 class)
[2] = HT-29, HT-29 necroptosis cell viability, IC50 class symbols, read-out: Activity
[3] = HT-29, HT-29 necroptosis cell viability assay, class symbols for IC50, read-out: Activity
[4] = HT-29 cells stimulated with TNF-α (10 ng/ml), SMAC mimetic (6 μM) and zVAD-FMK (10 μM), 20 hours, CellTiter-Glo ATP luminescence, geometric mean IC50 from 10 points, read-out: Activity

Cc1nc(Br)cn1Cc1ccc(-n2ncn(Cc3c(F)cccc3F)c2=O)cc1 [Example 666, 2-(4-((4-bromo-2-methyl-1H-imidazol-1-yl)methyl)phenyl)-4-(2,6-difluorobenzyl)-2,4-dihydro-3H-1,2,4-triazol-3-one]
IC50 [1]: < 100 nM

Cc1cnc(N2CC(C)(C#N)C2)cc1Oc1ccc(-n2ncn(Cc3c(F)cccc3F)c2=O)cc1Cl [Example 398, 1-(4-(2-chloro-4-(4-(2,6-difluorobenzyl)-5-oxo-4,5-dihydro-1H-1,2,4-triazol-1-yl)phenoxy)-5-methylpyridin-2-yl)-3-methylazetidine-3-carbonitrile]
IC50 [2]: < 100 nM

Cc1nc(C2(O)CCC2)sc1Oc1ccc(-n2ncn(Cc3c(F)cccc3F)c2=O)cc1F [Example 586, 4-(2,6-difluorobenzyl)-2-(3-fluoro-4-((2-(1-hydroxycyclobutyl)-4-methylthiazol-5-yl)oxy)phenyl)-2,4-dihydro-3H-1,2,4-triazol-3-one]
IC50 [3]: < 100 nM

Cc1nc(C(N)=O)n(C)c1Oc1ccc(-n2nc3n(c2=O)[C@H](c2ccccc2)CC3)cc1F (single isomer, unassigned) [Example 693]
IC50 [4]: < 100 nM

COC(=O)c1nc(C)c(Oc2ncc(-n3ncn(Cc4c(F)cccc4F)c3=O)cc2Cl)s1 [Example 649, methyl 5-((3-chloro-5-(4-(2,6-difluorobenzyl)-5-oxo-4,5-dihydro-1H-1,2,4-triazol-1-yl)pyridin-2-yl)oxy)-4-methylthiazole-2-carboxylate]
IC50 [1]: < 100 nM

Cc1nc(C(=O)N2CC(NC(=O)OC(C)(C)C)C2)sc1Oc1ccc(-n2ncn(Cc3ccccc3F)c2=O)cc1F [Example 598, tert-butyl (1-(5-(2-fluoro-4-(4-(2-fluorobenzyl)-5-oxo-4,5-dihydro-1H-1,2,4-triazol-1-yl)phenoxy)-4-methylthiazole-2-carbonyl)azetidin-3-yl)carbamate]
IC50 [3]: < 100 nM

Cc1nn(-c2ccc(S(=O)(=O)N3CCN(C4CCOCC4)CC3)cc2)c(=O)n1Cc1ccccc1 [Example 621, 4-benzyl-5-methyl-2-(4-((4-(tetrahydro-2H-pyran-4-yl)piperazin-1-yl)sulfonyl)phenyl)-2,4-dihydro-3H-1,2,4-triazol-3-one]
IC50 [3]: > 10000 nM

Cc1nc(C(N)=O)sc1Oc1ccc(-n2ncn(Cc3cc(Cl)ccn3)c2=O)cc1F [Example 565]
IC50 [3]: 100 to 1000 nM

CCOC1CN(c2nc(C)c(Oc3ccc(-n4ncn(Cc5c(F)cccc5F)c4=O)cc3)s2)C1 [Example 74, 4-(2,6-difluorobenzyl)-2-(4-((2-(3-ethoxyazetidin-1-yl)-4-methylthiazol-5-yl)oxy)phenyl)-2,4-dihydro-3H-1,2,4-triazol-3-one]
IC50 [4]: < 100 nM

Cc1cc(N2CC(C)(N)C2)nn1Cc1ccc(-n2ncn(Cc3c(F)cccc3F)c2=O)cc1 [Example 537, 2-(4-((3-(3-amino-3-methylazetidin-1-yl)-5-methyl-1H-pyrazol-1-yl)methyl)phenyl)-4-(2,6-difluorobenzyl)-2,4-dihydro-3H-1,2,4-triazol-3-one]
IC50 [3]: 1000 to 10000 nM

COC(=O)c1nc(C)c(Oc2ccc(-n3ncn(Cc4ccccc4F)c3=O)cc2F)s1 [Example 107, methyl 5-(2-fluoro-4-(4-(2-fluorobenzyl)-5-oxo-4,5-dihydro-1H-1,2,4-triazol-1-yl)phenoxy)-4-methylthiazole-2-carboxylate]
IC50 [4]: < 100 nM

Cc1nc(C(C)O)sc1Oc1ccc(-n2nc3n(c2=O)[C@H](c2ccccc2)CC3)cc1F (single isomer, unassigned) [Example 149]
IC50 [3]: < 100 nM

CCOC1CN(c2cc(Oc3ccc(-n4ncn(Cc5c(F)cccc5F)c4=O)cc3)c(C)cn2)C1 [Example 266, 4-(2,6-difluorobenzyl)-2-(4-((2-(3-ethoxyazetidin-1-yl)-5-methylpyridin-4-yl)oxy)phenyl)-2,4-dihydro-3H-1,2,4-triazol-3-one]
IC50 [2]: < 100 nM

CC1(C#N)CN(c2nccc(Oc3ccc(-n4ncn(Cc5c(F)cccc5F)c4=O)cc3F)c2F)C1 [Example 226, 1-(4-(4-(4-(2,6-difluorobenzyl)-5-oxo-4,5-dihydro-1H-1,2,4-triazol-1-yl)-2-fluorophenoxy)-3-fluoropyridin-2-yl)-3-methylazetidine-3-carbonitrile]
IC50 [2]: < 100 nM

C/C(=N\O)c1nc(C)c(Oc2ccc(-n3ncn(Cc4c(F)cccc4F)c3=O)cc2F)s1 [Example 164, 4-(2,6-difluorobenzyl)-2-(3-fluoro-4-((2-(1-(hydroxyimino)ethyl)-4-methylthiazol-5-yl)oxy)phenyl)-2,4-dihydro-3H-1,2,4-triazol-3-one]
IC50 [3]: < 100 nM

Cc1nc(CO)sc1Oc1ccc(-n2ncn(Cc3c(F)cccc3F)c2=O)cc1 [Example 157, 4-(2,6-difluorobenzyl)-2-(4-((2-(hydroxymethyl)-4-methylthiazol-5-yl)oxy)phenyl)-2,4-dihydro-3H-1,2,4-triazol-3-one]
IC50 [3]: < 100 nM

N#CC1CC(Nc2cc(Oc3ccc(-n4ncn(Cc5c(F)cccc5F)c4=O)cc3)ccn2)C1 (stereo not shown) [Example 351, 3-((4-(4-(4-(2,6-difluorobenzyl)-5-oxo-4,5-dihydro-1H-1,2,4-triazol-1-yl)phenoxy)pyridin-2-yl)amino)cyclobutane-1-carbonitrile]
IC50 [2]: 100 to 1000 nM

N#CC1CC(Oc2ncccc2Cc2ccc(-n3ncn(Cc4c(F)cccc4F)c3=O)cc2)C1 (stereo not shown) [Example 684, 3-((3-(4-(4-(2,6-difluorobenzyl)-5-oxo-4,5-dihydro-1H-1,2,4-triazol-1-yl)benzyl)pyridin-2-yl)oxy)cyclobutane-1-carbonitrile]
IC50 [1]: 100 to 1000 nM

Cc1nc(NC(=O)OC(C)(C)C)sc1S(=O)(=O)c1ccc(-n2ncn(Cc3ccccc3)c2=O)cc1 [Example 629, tert-butyl (5-((4-(4-benzyl-5-oxo-4,5-dihydro-1H-1,2,4-triazol-1-yl)phenyl)sulfonyl)-4-methylthiazol-2-yl)carbamate]
IC50 [3]: 100 to 1000 nM

COc1cc(Oc2nc(C)c(-n3ncn(Cc4c(F)cccc4F)c3=O)s2)ccn1 [Example 169, 4-(2,6-difluorobenzyl)-2-(2-((2-methoxypyridin-4-yl)oxy)-4-methylthiazol-5-yl)-2,4-dihydro-3H-1,2,4-triazol-3-one]
IC50 [3]: 1000 to 10000 nM

Cc1nn(-c2ccc(S(=O)(=O)N3CCN(C4COC4)CC3)cc2)c(=O)n1Cc1ccccc1 [Example 623]
IC50 [3]: > 10000 nM

COC(=O)c1ncsc1Nc1ccc(-n2ncn(Cc3c(F)cccc3F)c2=O)cc1 [Example 171, methyl 5-((4-(4-(2,6-difluorobenzyl)-5-oxo-4,5-dihydro-1H-1,2,4-triazol-1-yl)phenyl)amino)thiazole-4-carboxylate]
IC50 [3]: 1000 to 10000 nM

C[C@H]1C[C@@H](N)CN1c1cc(Oc2ccc(-n3ncn(Cc4c(F)cccc4F)c3=O)cc2F)c(Cl)cn1 [Example 413, 2-(4-((2-((2S,4R)-4-amino-2-methylpyrrolidin-1-yl)-5-chloropyridin-4-yl)oxy)-3-fluorophenyl)-4-(2,6-difluorobenzyl)-2,4-dihydro-3H-1,2,4-triazol-3-one]
IC50 [2]: < 100 nM

Cc1nc(C(C)(C)O)c(C)n1Cc1ccc(-n2ncn(Cc3c(F)cccc3F)c2=O)cc1F [Example 135, 4-(2,6-difluorobenzyl)-2-(3-fluoro-4-((4-(2-hydroxypropan-2-yl)-2,5-dimethyl-1H-imidazol-1-yl)methyl)phenyl)-2,4-dihydro-3H-1,2,4-triazol-3-one]
IC50 [3]: 1000 to 10000 nM

C[C@H]1C[C@@H](O)CN1c1cc(Oc2ccc(-n3ncn(Cc4c(F)cccc4F)c3=O)cc2)ccn1 [Example 289, 4-(2,6-difluorobenzyl)-2-(4-((2-((2S,4R)-4-hydroxy-2-methylpyrrolidin-1-yl)pyridin-4-yl)oxy)phenyl)-2,4-dihydro-3H-1,2,4-triazol-3-one]
IC50 [2]: < 100 nM

Cc1nc(C#N)sc1Oc1ccc(-n2ncn(Cc3ccccc3F)c2=O)cc1F [Example 561, 5-(2-fluoro-4-(4-(2-fluorobenzyl)-5-oxo-4,5-dihydro-1H-1,2,4-triazol-1-yl)phenoxy)-4-methylthiazole-2-carbonitrile]
IC50 [3]: < 100 nM

CC1(C#N)CCN(c2cc(Oc3ccc(-n4ncn(Cc5c(F)cccc5F)c4=O)cc3F)c(F)cn2)C1 (stereo not shown) [Example 394, 1-(4-(4-(4-(2,6-difluorobenzyl)-5-oxo-4,5-dihydro-1H-1,2,4-triazol-1-yl)-2-fluorophenoxy)-5-fluoropyridin-2-yl)-3-methylpyrrolidine-3-carbonitrile]
IC50 [2]: < 100 nM

Cc1nc(C(C)(C)O)sc1Oc1ccc(-n2ncn(Cc3cc(Cl)ccn3)c2=O)cc1F [Example 471, 4-((4-chloropyridin-2-yl)methyl)-2-(3-fluoro-4-((2-(2-hydroxypropan-2-yl)-4-methylthiazol-5-yl)oxy)phenyl)-2,4-dihydro-3H-1,2,4-triazol-3-one]
IC50 [2]: 1000 to 10000 nM

CCOC1CN(c2ncnc(Oc3ccc(-n4ncn(Cc5c(F)cccc5F)c4=O)cc3)c2F)C1 [Example 234, 4-(2,6-difluorobenzyl)-2-(4-((6-(3-ethoxyazetidin-1-yl)-5-fluoropyrimidin-4-yl)oxy)phenyl)-2,4-dihydro-3H-1,2,4-triazol-3-one]
IC50 [2]: 100 to 1000 nM

CCOC(=O)c1ocnc1Oc1ccc(-n2ncn(Cc3c(F)cccc3F)c2=O)cc1F [Example 534, ethyl 4-(4-(4-(2,6-difluorobenzyl)-5-oxo-4,5-dihydro-1H-1,2,4-triazol-1-yl)-2-fluorophenoxy)oxazole-5-carboxylate]
IC50 [3]: < 100 nM

COC(=O)c1nc(Oc2ccc(-n3ncn(Cc4c(F)cccc4F)c3=O)cc2)sc1C [Example 92, methyl 2-(4-(4-(2,6-difluorobenzyl)-5-oxo-4,5-dihydro-1H-1,2,4-triazol-1-yl)phenoxy)-5-methylthiazole-4-carboxylate]
IC50 [4]: 100 to 1000 nM
